Molecules are shown by their SMILES. Read-outs that look alike come from different tables or passages of the source.

This is an account of results in article PMC5921725 (Japanese Journal of Cancer Research : Gann, 1998).

Series [1] concerns the target T1, human P-gp (Homo sapiens, UniProt P08183).
Series [2] addresses T1, human P-gp. As to conditions: 2 μM inhibitor, LLC-GA5-COL150, after last sampling (3 h).
Series [3] deals with T1, human P-gp. As to conditions: for effect on [14C]doxorubicin transport: LLC-GA5-COL150.
For series [4] the following is noted: clinical trials, cited from earlier work.
The subject of the next series is P-gp. As to conditions: cited from earlier work.
The target of series [5] is T1, human P-gp. Put plainly: Transcellular transport of PSC833 in LLC-PK1 and LLC-GA5-COL150 cells.

T1 sequence (P08183 whole entry): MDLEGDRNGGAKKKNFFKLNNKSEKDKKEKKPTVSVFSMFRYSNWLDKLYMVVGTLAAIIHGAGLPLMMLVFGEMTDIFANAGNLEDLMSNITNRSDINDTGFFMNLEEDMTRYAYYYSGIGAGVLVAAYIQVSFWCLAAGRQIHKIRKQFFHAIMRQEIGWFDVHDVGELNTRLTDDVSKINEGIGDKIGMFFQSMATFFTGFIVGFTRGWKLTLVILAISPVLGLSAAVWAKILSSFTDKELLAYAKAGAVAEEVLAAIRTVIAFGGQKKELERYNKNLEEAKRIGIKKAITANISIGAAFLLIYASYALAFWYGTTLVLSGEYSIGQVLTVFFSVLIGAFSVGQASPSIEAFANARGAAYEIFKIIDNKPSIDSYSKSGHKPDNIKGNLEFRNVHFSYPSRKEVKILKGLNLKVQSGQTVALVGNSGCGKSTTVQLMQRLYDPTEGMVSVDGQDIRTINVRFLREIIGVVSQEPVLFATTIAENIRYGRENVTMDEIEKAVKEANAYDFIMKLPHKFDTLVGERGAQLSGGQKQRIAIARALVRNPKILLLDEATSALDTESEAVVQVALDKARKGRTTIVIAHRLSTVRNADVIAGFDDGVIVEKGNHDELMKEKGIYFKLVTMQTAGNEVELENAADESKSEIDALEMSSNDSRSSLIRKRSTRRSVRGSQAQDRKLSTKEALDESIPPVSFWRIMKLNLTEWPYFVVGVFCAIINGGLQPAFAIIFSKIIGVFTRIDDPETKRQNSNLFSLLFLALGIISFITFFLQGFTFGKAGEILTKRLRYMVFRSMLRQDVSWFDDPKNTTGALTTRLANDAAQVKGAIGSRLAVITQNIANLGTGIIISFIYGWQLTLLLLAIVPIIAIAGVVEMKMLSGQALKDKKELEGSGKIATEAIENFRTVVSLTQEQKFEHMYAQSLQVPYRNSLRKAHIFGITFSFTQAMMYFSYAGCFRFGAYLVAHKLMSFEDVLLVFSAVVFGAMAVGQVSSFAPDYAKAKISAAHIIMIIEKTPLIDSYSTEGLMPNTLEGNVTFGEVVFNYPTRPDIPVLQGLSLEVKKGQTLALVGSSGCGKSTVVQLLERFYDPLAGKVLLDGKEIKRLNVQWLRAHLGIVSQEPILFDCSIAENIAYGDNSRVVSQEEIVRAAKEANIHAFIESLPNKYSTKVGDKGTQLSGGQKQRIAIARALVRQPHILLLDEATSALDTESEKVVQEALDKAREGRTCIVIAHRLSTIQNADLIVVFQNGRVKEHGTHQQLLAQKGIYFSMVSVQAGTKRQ

For `C/C=C/C[C@@H](C)C(=O)[C@H]1C(=O)N[C@@H](C(C)C)C(=O)N(C)CC(=O)N(C)[C@@H](CC(C)C)C(=O)N[C@@H](C(C)C)C(=O)N(C)[C@@H](CC(C)C)C(=O)N[C@@H](C)C(=O)N[C@H](C)C(=O)N(C)[C@@H](CC(C)C)C(=O)N(C)[C@@H](CC(C)C)C(=O)N(C)[C@@H](C(C)C)C(=O)N1C` [PSC833, [3′‐keto‐Bmt1]‐Val2]‐cyclosporin], the “effect on [3H]vinblastine transport” value on human P-gp [1] (2 μM inhibitor, LLC-GA5-COL150) is “almost completely inhibited”. Moreover, the “IC50 of PSC833 for vinblastine transport as % of that of Cs-A” value on human P-gp [1] (Table I) was found to be 20%. On human P-gp [1] (ratio of IC50 values, Table I), the “IC50 of PSC833 less than that of Cs-A for [3H]vinblastine transport” value was “about 5 fold”. Moreover, the “intracellular accumulation of [3H]vinblastine” value at human P-gp [2] is given as “approached the control level”. The “effect on [14C]doxorubicin transport” value on human P-gp [3] (0.1 μM inhibitor) is reported as “little inhibitory effect”; on human P-gp [3] (inhibitor concentrations greater than 0.5 μM), “strong inhibitory effect”. Also, at human P-gp [3] (Table I), the “IC50 of PSC833 for [14C]doxorubicin transport as % of that of Cs-A” value was found to be 10%. Further, the “IC50 of PSC833 less than that of Cs-A for [14C]doxorubicin transport” value on human P-gp [3] (ratio of IC50 values, Table I) is around 10 fold. Moreover, the “concentrations at which the AUC of coadministered anticancer drugs increased” value in series [4] is 1000 to 2000 ng/mL. In addition, in series [4] (combination therapy with PSC833 and doxorubicin), the “increase in the AUC of doxorubicin” value is reported as 20-199%. Besides, the “more effective than Cs-A in displacing the photoactivatable cyclosporin analogue” value with P-gp is listed as “approximately 2.5 fold”. The “transported amount in LLC-GA5-COL150 cells compared with LLC-PK1 cells” value at human P-gp [5] (10 μM PSC833, 3 and 6 h, 37C, HPLC-UV) is “approximately the same”. The “transport by P-gp” value at human P-gp [5] (LLC-GA5-COL150 vs LLC-PK1 monolayers, 10 μM, both directions) was “not transported”.
